Data reported in the NIST ThermoML archive (doi:10.1021/je0602263).

Assay: xn = mol fraction of the nth substance listed
Conditions: 298.15 K, 101 kPa, Liquid

Cc1ccccc1 [toluene] + COC(=O)OC
Conditions	mass density [kg/m3]
x2 = 0	862.5

COC(=O)OC [dimethyl carbonate] + c1ccccc1
Conditions	mass density [kg/m3]
x1 = 0.0499	882
x1 = 0.1	890.57
x1 = 0.15	899.18
x1 = 0.2001	907.93
x1 = 0.2499	916.61
x1 = 0.3	925.59
x1 = 0.3498	934.53
x1 = 0.4	943.7
x1 = 0.45	952.89
x1 = 0.5001	962.25
x1 = 0.55	971.69
x1 = 0.6	981.28
x1 = 0.6499	990.96
x1 = 0.7001	1000.84
x1 = 0.7501	1010.88
x1 = 0.8001	1021.01
x1 = 0.8498	1031.36
x1 = 0.8999	1041.69
x1 = 0.9501	1052.35
x1 = 1	1063.19

COC(=O)OC [dimethyl carbonate] + CC(C)CC(C)(C)C
Conditions	mass density [kg/m3]
x1 = 0.0497	696.81
x1 = 0.1	706.22
x1 = 0.15	716.12
x1 = 0.2001	726.95
x1 = 0.2499	738.38
x1 = 0.2998	750.67
x1 = 0.3498	763.75
x1 = 0.4004	777.96
x1 = 0.4498	792.89
x1 = 0.5002	809.29
x1 = 0.5499	826.46
x1 = 0.5998	845.2
x1 = 0.6502	865.43
x1 = 0.7	887.02
x1 = 0.75	910.31
x1 = 0.8	935.94
x1 = 0.8499	963.69
x1 = 0.8999	993.77
x1 = 0.9498	1026.79
x1 = 1	1063.19

CCCCCCC [heptane] + COC(=O)OC
Conditions	mass density [kg/m3]
x2 = 0	680.52

COC(=O)OC [dimethyl carbonate] + CCCCCCC
Conditions	mass density [kg/m3]
x1 = 0.0501	690.16
x1 = 0.0999	700.47
x1 = 0.15	711.7
x1 = 0.1998	723.65
x1 = 0.2501	736.28
x1 = 0.2999	749.59
x1 = 0.3501	763.95
x1 = 0.4	779.05
x1 = 0.4499	795.07
x1 = 0.5001	812.18
x1 = 0.5498	830.25
x1 = 0.6	849.67
x1 = 0.6499	870.23
x1 = 0.7001	892.23
x1 = 0.75	915.72
x1 = 0.8	941.09
x1 = 0.8501	968.3
x1 = 0.9001	997.61
x1 = 0.9501	1029.09
x1 = 1	1063.19

CC(C)CC(C)(C)C [2,2,4-trimethylpentane] + COC(=O)OC
Conditions	mass density [kg/m3]
x2 = 0	688.04

COC(=O)OC [dimethyl carbonate] + Cc1ccccc1
Conditions	mass density [kg/m3]
x1 = 0.0498	869.9
x1 = 0.0998	877.68
x1 = 0.15	885.75
x1 = 0.1999	893.96
x1 = 0.2498	902.39
x1 = 0.2999	911.1
x1 = 0.3498	919.98
x1 = 0.4	929.22
x1 = 0.4498	938.57
x1 = 0.4999	948.26
x1 = 0.5499	958.27
x1 = 0.5999	968.51
x1 = 0.65	979.06
x1 = 0.7	989.94
x1 = 0.7499	1001.14
x1 = 0.8001	1012.77
x1 = 0.8501	1024.73
x1 = 0.8998	1037.03
x1 = 0.9502	1049.89
x1 = 1	1063.19

c1ccccc1 [benzene] + COC(=O)OC
Conditions	mass density [kg/m3]
x2 = 0	873.56
